From patent US4107424A, “1-N-[(S)-α-hydroxy-ω-aminoacyl] derivatives of 3',4'-dideoxykanamycin B and 3'-deoxykanamycin B antibiotics” (Zaidan Hojin Biseibutsu Kagaku Kenkyu Kai, priority 1972, dated 1978)
In brackets after ≈: the same amount, converted by molar mass.

What was measured:
[1] = test system: Bacillus subtilis NRRL B-558; test: Minimal inhibitory concentration, agar dilution streak method; format: cell-based; settings: NRRLB558, nutrient agar, 37° C, 18 hours
Method: (§1) [α]D^22 + 38°, (c 0.85, water).
(§2) *Agar Agar dilution streak method (nutrient agar, 37° C, 18 hours)
(§3) *Agar dilution streak method (nutrient agar, 37° C, 18 hours).

[2] = test system: Escherichia coli J 5 R 11-2; test: as above; format: cell-based; settings: J5R112, 18 h, read-out: Minimal inhibitory concentration
Method: as §1, §2, §3

[3] = test system: Escherichia coli K-12 C 600 R 135; test: as above; format: cell-based; settings: 18 h, read-out: Minimal inhibitory concentration
Method: as §1, §2, §3

[4] = test system: Escherichia coli K-12 R-5; test: as above; format: cell-based; settings: K12R5, nutrient agar, 37° C, 18 hours
Method: as §1, §2, §3

Escherichia coli NIHJ = test: as above; format: cell-based; settings: nutrient agar, 37° C, 18 hours
Method: as §1, §2, §3

[5] = test system: Klebsiella pneumoniae PCI 602; test: as above; format: cell-based; settings: PCI602, nutrient agar, 37° C, 18 hours
Method: as §1, §2, §3

Proteus rettgeri GN 311 = test: as above; format: cell-based; settings: Providencia rettgeri, GN311; nutrient agar, 37° C, 18 hours
Method: as §1, §2, §3

Proteus rettgeri GN 466 = test: as above; format: cell-based; settings: Providencia rettgeri, GN466; nutrient agar, 37° C, 18 hours
Method: as §1, §2, §3

[6] = test system: Pseudomonas aeruginosa 99; test: as above; format: cell-based; settings: nutrient agar, 37° C, 18 hours, read-out: Minimal inhibitory concentration
Method: as §1, §2, §3

Salmonella typhosa T-63 = test: as above; format: cell-based; settings: Salmonella enterica, nutrient agar, 37° C, 18 hours
Method: as §1, §2, §3

Sarcina lutea PCI 1001 = test: as above; format: cell-based; settings: Micrococcus luteus, PCI1001; nutrient agar, 37° C, 18 hours; read-out: Minimal inhibitory concentration
Method: as §1, §2, §3

[7] = test system: Escherichia coli K-12 JR 66/W 677; test: as above; format: cell-based; settings: Escherichia coli, 18 h, read-out: Minimal inhibitory concentration
Method: as §2, §3

[8] = test system: Escherichia coli K-12 LA 290 R 55; test: as above; format: cell-based; settings: 18 h, read-out: Minimal inhibitory concentration
Method: as §2, §3

[9] = test system: Escherichia coli K-12 LA 290 R 56; test: as above; format: cell-based; settings: 18 h, read-out: Minimal inhibitory concentration
Method: as §2, §3

[10] = test system: Escherichia coli K-12 LA 290 R 64; test: as above; format: cell-based; settings: nutrient agar, 37° C, 18 hours, read-out: Minimal inhibitory concentration
Method: as §2, §3

[11] = test system: Escherichia coli K-12 ML 1410 R 81; test: as above; format: cell-based; settings: 18 h, read-out: Minimal inhibitory concentration
Method: as §2, §3

[12] = test system: Escherichia coli K-12 ML 1410; test: as above; format: cell-based; settings: K12ML1410, nutrient agar, 37° C, 18 hours, read-out: Minimal inhibitory concentration
Method: as §2, §3

[13] = test system: Escherichia coli K-12 ML 1629; test: as above; format: cell-based; settings: K12ML1629, nutrient agar, 37° C, 18 hours, read-out: Minimal inhibitory concentration
Method: as §2, §3

[14] = test system: Escherichia coli K-12 ML 1630; test: as above; format: cell-based; settings: K12ML1630, nutrient agar, 37° C, 18 hours, read-out: Minimal inhibitory concentration
Method: as §2, §3

[15] = test system: Escherichia coli K-12 W 677; test: as above; format: cell-based; settings: K12W677, nutrient agar, 37° C, 18 hours, read-out: Minimal inhibitory concentration
Method: as §2, §3

Escherichia coli K-12 = test: as above; format: cell-based; settings: K12, nutrient agar, 37° C, 18 hours, read-out: Minimal inhibitory concentration
Method: as §2, §3

[16] = test system: Klebsiella pneumoniae type 22 #3038; test: as above; format: cell-based; settings: Klebsiella pneumoniae; nutrient agar, 37° C, 18 hours
Method: as §2, §3

[17] = test system: Pseudomonas aeruginosa A 3; test: as above; format: cell-based; settings: A3, nutrient agar, 37° C, 18 hours, read-out: Minimal inhibitory concentration
Method: as §2, §3

[18] = test system: Pseudomonas aeruginosa GN 315; test: as above; format: cell-based; settings: GN315, nutrient agar, 37° C, 18 hours, read-out: Minimal inhibitory concentration
Method: as §2, §3

[19] = test system: Pseudomonas aeruginosa No.12; test: as above; format: cell-based; settings: nutrient agar, 37° C, 18 hours, read-out: Minimal inhibitory concentration
Method: as §2, §3

[20] = test system: Pseudomonas aeruginosa TI-13; test: as above; format: cell-based; settings: TI13, nutrient agar, 37° C, 18 hours, read-out: Minimal inhibitory concentration
Method: as §2, §3

[21] = test system: Staphylococcus aureus FDA 209P; test: as above; format: cell-based; settings: FDA209P, nutrient agar, 37° C, 18 hours, read-out: Minimal inhibitory concentration
Method: as §2, §3

[22] = test system: Mycobacterium smegmatis ATCC 607; test: as above; format: cell-based; settings: Mycolicibacterium smegmatis, ATCC607; nutrient agar, 37° C, 48 hours; read-out: Minimal inhibitory concentration
phosphotransferase = settings: phosphorylation of hydroxyl group; cited from earlier work

Structure (SMILES): NC[C@@H]1CC[C@@H](N)[C@@H](O[C@H]2[C@H](O[C@@H]3O[C@H](CO)[C@@H](O)[C@H]3O)[C@@H](O)[C@H](N)C[C@@H]2N)O1 [3',4'-dideoxyribostamycin]
- MIC [1]: 1.56 µg/mL (≈ 3.69 µM)
- MIC [2]: 100 µg/mL (≈ 237 µM)
- MIC [3]: 3.12 µg/mL (≈ 7.38 µM)
- MIC [4]: 100 µg/mL (≈ 237 µM)
- MIC (Escherichia coli NIHJ): 6.25 µg/mL (≈ 14.8 µM)
- MIC [5]: 3.12 µg/mL (≈ 7.38 µM)
- MIC (Proteus rettgeri GN 311): 6.25 µg/mL (≈ 14.8 µM)
- MIC (Proteus rettgeri GN 466): 6.25 µg/mL (≈ 14.8 µM)
- MIC [6]: 50 µg/mL (≈ 118 µM)
- MIC (Salmonella typhosa T-63): 1.56 µg/mL (≈ 3.69 µM)
- MIC (Sarcina lutea PCI 1001): > 100 µg/mL
- MIC [7]: 6.25 µg/mL (≈ 14.8 µM)
- MIC [8]: 3.12 µg/mL (≈ 7.38 µM)
- MIC [9]: 1.56 µg/mL (≈ 3.69 µM)
- MIC [10]: 3.12 µg/mL (≈ 7.38 µM)
- MIC [11]: > 100 µg/mL
- MIC [12]: 6.25 µg/mL (≈ 14.8 µM)
- MIC [13]: > 100 µg/mL
- MIC [14]: > 100 µg/mL
- MIC [15]: 3.12 µg/mL (≈ 7.38 µM)
- MIC (Escherichia coli K-12): 3.12 µg/mL (≈ 7.38 µM)
- MIC [16]: 6.25 µg/mL (≈ 14.8 µM)
- MIC [17]: 6.25 µg/mL (≈ 14.8 µM)
- MIC [18]: > 100 µg/mL
- MIC [19]: 12.5 µg/mL (≈ 29.6 µM)
- MIC [20]: 25 µg/mL (≈ 59.2 µM)
- MIC [21]: 3.12 µg/mL (≈ 7.38 µM)
- MIC [22]: 3.12 µg/mL (≈ 7.38 µM)
- inactivation by phosphotransferase (phosphotransferase): inactivated by phosphorylating 5"-hydroxyl group
